Test results published in US5440016A, “Peptides of the formula (KFmoc) ZZZ and their uses” (priority 1993, dated 1995).
Square brackets hold non-standard residues; d marks the D form. Peptide text beside a SMILES is read from it.

Assays:
[1] = target: T1, trypsin (from bovine pancreas) (Bos taurus, UniProt P00760); test: Trypsin inhibition assay; assay type: biochemical; conditions: trypsin concentration of 193 nM; substrate N-alpha-benzoyl-DL-arginine-p-nitroanilide; read-out: IC50, trypsin inhibiting activity
T1 construct: trypsin (from bovine pancreas, 8,600 units/mg solid); from tissue; host or cells: bovine pancreas
T1 sequence (P00760 24-246): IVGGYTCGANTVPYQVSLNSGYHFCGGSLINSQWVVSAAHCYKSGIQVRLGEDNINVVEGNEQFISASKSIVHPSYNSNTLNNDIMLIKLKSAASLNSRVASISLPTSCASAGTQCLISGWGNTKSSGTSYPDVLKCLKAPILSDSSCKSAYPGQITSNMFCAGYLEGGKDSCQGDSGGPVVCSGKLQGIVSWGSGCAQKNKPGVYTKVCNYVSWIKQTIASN
Experimental: The assay was performed in a 96-well assay plate, 15 μl trypsin (from bovine pancreas, 8,600 units/mg solid) solution (0.05 mg/ml 0.02 M HCl), 50 μl peptide solution (1 to 3 mM in water), and 100 μl 0.1 M Tris-buffer containing 25 mM CaCl2 (pH 7.8) were mixed in the wells of the assay plate. After incubation for 30 minutes, 100 μl substrate solution (N^α -benzoyl-DL-arginine-p-nitroanilide, 2.3 mM in water) was added. After 30 minutes, absorbances were read at 405 nm using a Titertek multichannel photometer, and expressed as a percentage of the control (well without peptide). The values obtained with serial dilutions of the peptide solutions were used to determine the IC50 values (concentration neccessary for 50% inhibition).

[2] = system: Candida albicans ATCC 10231; conditions: Tables 22-23
[3] = system: Staphylococcus aureus ATCC 29213; conditions: Tables 22-23
Experimental: (§1) Escherichia coli ATCC 25922 and P. aeruginosa ATCC 27853 were used as Gram-negative (-) and Staphylococcus aureus ATCC 29213 as Gram-positive (+) bacteria. Bacteria were grown overnight at 37° C. in Mueller-Hinton (MH) broth. This culture was reinoculated and incubated at 37° C. to reach the exponential phase of bacteria growth, i.e., a final bacterial suspension containing 10^5 to 5×10^5 colony-forming units (CFU)/ml. The concentration of cells was established by plating 100 μl of different dilutions of the culture solution (e.g., 10^-2, 10^-3 and 10^-4) onto solid agar plates.
(§2) Following an overnight incubation at 37° C., the CFU thus formed were counted on each agar plate. In 96-well tissue culture plates, as control blanks, eight wells per plate contained only medium, while as a positive growth control, eight other wells contained medium plus cells.
(§3) The plates were incubated overnight at 37° C., and the optical density (OD) determined at 620 nm after different times of incubation.

[4] = system: Escherichia coli ATCC 25922; conditions: Tables 22-23
Experimental: as §1, §2, §3

[5] = system: Human red blood cells (RBCs); test: Hemolytic activity; assay type: cell-based; conditions: at 100 μg/ml, Tables 22-23
P. aeruginosa ATCC 27853 = test: Antimicrobial assay, P. aeruginosa; conditions: Tables 22-23
Experimental: as §1, §2, §3

[6] = system: Streptococcus sanguis ATCC 10556; conditions: Tables 22-23
Experimental: Streptococcus sanguis ATCC 10556 (Gram-positive (+) bacteria present in tooth crevices) was grown overnight at 37° C. in Brain Heart Infusion (BHI) broth. This culture was reinoculated and incubated at 37° C. to reach the exponential phase of bacteria growth, i.e., a final bacterial suspension containing 10^5 to 5×10^5 colony-forming units (CFU)/ml. The concentration of cells was established by plating 100 μl of different dilutions of the culture solution (e.g., 10^-2, 10^-4) and 10^-4) onto solid agar plates. Following an overnight incubation at 37° C., the CFU thus formed were counted on each agar plate. In 96-well tissue culture plates, as control blanks, eight wells per plate contained only medium, while as a positive growth control, eight other wells contained medium plus cells. […] The plates were incubated overnight at 37° C., and the optical density (OD) determined at 620 nm after 20 to 24 hours incubation.

CC(=O)N[C@H](CCCNC(=N)N)C(=O)N[C@H](Cc1ccc(O)cc1)C(=O)N[C@H](CCCNC(=N)N)C(=O)N1CCC[C@@H]1C(=O)N[C@H](Cc1c[nH]c2ccccc12)C(=O)N1CCC[C@@H]1C(N)=O [Ac-ryrpwp-NH2] (Ac-[dR][dY][dR][dP][dW][dP]-NH2)
IC50 [1]: 62 µM

CC(=O)N[C@H](CCCNC(=N)N)C(=O)N[C@H](Cc1ccc(O)cc1)C(=O)N[C@H](CCCNC(=N)N)C(=O)N1CCC[C@@H]1C(=O)N[C@H](Cc1c[nH]c2ccccc12)C(=O)N[C@H](Cc1c[nH]c2ccccc12)C(N)=O [Ac-ryrpww-NH2] (Ac-[dR][dY][dR][dP][dW][dW]-NH2)
IC50 [1]: 125 µM

CC(=O)N[C@H](CCCNC(=N)N)C(=O)N[C@H](CCCNC(=N)N)C(=O)N[C@H](Cc1c[nH]c2ccccc12)C(=O)N[C@H](Cc1c[nH]c2ccccc12)C(=O)N[C@H](CS)C(=O)N[C@H](CCCNC(=N)N)C(N)=O [Ac-rrwwcr-NH2] (Ac-[dR][dR][dW][dW][dC][dR]-NH2)
IC50 (μg/ml) against C. albicans [2]: 68 to 78 µg/mL
IC50 (μg/ml) against S. aureus [3]: 9 to 13 µg/mL
IC50 (μg/ml) against E. coli [4]: 10 to 11 µg/mL
% hemolysis at 100 μg/ml [5]: 2.0%
IC50 (μg/ml) against P. aeruginosa (P. aeruginosa ATCC 27853): 28 to 29 µg/mL
IC50 (μg/ml) against S. sanguis [6]: 14 to 15 µg/mL

CC(=O)N[C@H](CCCNC(=N)N)C(=O)N[C@H](Cc1ccc(O)cc1)C(=O)N[C@H](CCCNC(=N)N)C(=O)N1CCC[C@@H]1C(=O)N[C@H](Cc1c[nH]c2ccccc12)C(=O)N[C@@H](C(N)=O)[C@H](C)O [Ac-ryrpwt-NH2] (Ac-[dR][dY][dR][dP][dW][dT]-NH2)
IC50 [1]: 142 µM

Ac-RRWWCT-NH2 [Ac-RRWWCT-NH2]
IC50 (μg/ml) against C. albicans [2]: 216 to 223 µg/mL
IC50 (μg/ml) against S. aureus [3]: 38 to 47 µg/mL
IC50 (μg/ml) against E. coli [4]: 24 to 28 µg/mL
% hemolysis at 100 μg/ml [5]: 0.5%
IC50 (μg/ml) against P. aeruginosa (P. aeruginosa ATCC 27853): 180 µg/mL
IC50 (μg/ml) against S. sanguis [6]: 56 to 61 µg/mL

Ac-RRWWCQ-NH2 [Ac-RRWWCQ-NH2]
IC50 (μg/ml) against C. albicans [2]: 223 to 230 µg/mL
IC50 (μg/ml) against S. aureus [3]: 52 to 98 µg/mL
IC50 (μg/ml) against E. coli [4]: 41 to 42 µg/mL
% hemolysis at 100 μg/ml [5]: 0.0%
IC50 (μg/ml) against P. aeruginosa (P. aeruginosa ATCC 27853): 60 to 65 µg/mL
IC50 (μg/ml) against S. sanguis [6]: 230 µg/mL

Ac-RRWWCA-NH2 [Ac-RRWWCA-NH2]
IC50 (μg/ml) against C. albicans [2]: 193 to 210 µg/mL
IC50 (μg/ml) against S. aureus [3]: 35 to 40 µg/mL
IC50 (μg/ml) against E. coli [4]: 21 to 23 µg/mL
% hemolysis at 100 μg/ml [5]: 2.2%
IC50 (μg/ml) against P. aeruginosa (P. aeruginosa ATCC 27853): 97 to 98 µg/mL
IC50 (μg/ml) against S. sanguis [6]: 60 to 70 µg/mL

Ac-RRWWCP-NH2 [Ac-RRWWCP-NH2]
IC50 (μg/ml) against C. albicans [2]: 217 to 222 µg/mL
IC50 (μg/ml) against S. aureus [3]: 49 to 50 µg/mL
IC50 (μg/ml) against E. coli [4]: 19 to 27 µg/mL
% hemolysis at 100 μg/ml [5]: 0.0%
IC50 (μg/ml) against P. aeruginosa (P. aeruginosa ATCC 27853): 200 µg/mL
IC50 (μg/ml) against S. sanguis [6]: 190 µg/mL

Ac-RRWWCG-NH2 [Ac-RRWWCG-NH2]
IC50 (μg/ml) against C. albicans [2]: 215 to 218 µg/mL
IC50 (μg/ml) against S. aureus [3]: 46 to 49 µg/mL
IC50 (μg/ml) against E. coli [4]: 22 to 23 µg/mL
% hemolysis at 100 μg/ml [5]: 1.9%
IC50 (μg/ml) against P. aeruginosa (P. aeruginosa ATCC 27853): 200 µg/mL
IC50 (μg/ml) against S. sanguis [6]: 47 to 66 µg/mL

Ac-RRWWCV-NH2 [Ac-RRWWCV-NH2]
IC50 (μg/ml) against C. albicans [2]: 103 to 174 µg/mL
IC50 (μg/ml) against S. aureus [3]: 19 to 21 µg/mL
IC50 (μg/ml) against E. coli [4]: 17 to 18 µg/mL
% hemolysis at 100 μg/ml [5]: 0.0%
IC50 (μg/ml) against P. aeruginosa (P. aeruginosa ATCC 27853): 33 to 44 µg/mL
IC50 (μg/ml) against S. sanguis [6]: 41 to 46 µg/mL

Ac-RRWWCD-NH2 [Ac-RRWWCD-NH2]
IC50 (μg/ml) against C. albicans [2]: > 1000 µg/mL
IC50 (μg/ml) against S. aureus [3]: > 125 µg/mL
IC50 (μg/ml) against E. coli [4]: > 125 µg/mL
% hemolysis at 100 μg/ml [5]: 0.3%
IC50 (μg/ml) against P. aeruginosa (P. aeruginosa ATCC 27853): > 500 µg/mL
IC50 (μg/ml) against S. sanguis [6]: > 500 µg/mL

CC(=O)N[C@H](CCCNC(=N)N)C(=O)N[C@H](Cc1ccc(O)cc1)C(=O)N[C@H](CCCNC(=N)N)C(=O)N1CCC[C@@H]1C(=O)N[C@H](Cc1c[nH]c2ccccc12)C(=O)N[C@H](CS)C(N)=O [Ac-ryrpwc-NH2] (Ac-[dR][dY][dR][dP][dW][dC]-NH2)
IC50 [1]: 135 µM

CC(=O)N[C@H](CCCNC(=N)N)C(=O)N[C@H](Cc1ccc(O)cc1)C(=O)N[C@H](CCCNC(=N)N)C(=O)N1CCC[C@@H]1C(=O)N[C@H](Cc1c[nH]c2ccccc12)C(=O)N[C@@H](C(N)=O)C(C)C [Ac-ryrpwv-NH2] (Ac-[dR][dY][dR][dP][dW][dV]-NH2)
IC50 [1]: 131 µM

Ac-RRWWCH-NH2 [Ac-RRWWCH-NH2]
IC50 (μg/ml) against C. albicans [2]: 69 to 107 µg/mL
IC50 (μg/ml) against S. aureus [3]: 26 to 28 µg/mL
IC50 (μg/ml) against E. coli [4]: 20 to 28 µg/mL
% hemolysis at 100 μg/ml [5]: 0.0%
IC50 (μg/ml) against P. aeruginosa (P. aeruginosa ATCC 27853): 59 to 65 µg/mL
IC50 (μg/ml) against S. sanguis [6]: 53 to 62 µg/mL
